Reference: patent EP0094815B1, “Oligopeptide prodrugs” (SMITHKLINE BECKMAN CORPORATION, priority 1982, dated 1983)

Key:
[1] = tested on: representative fungal and bacterial organisms; assay: Biological screen of the utility (antimicrobial) example; assay type: cell-based; settings: product of first deblocking, later found not completely deblocked
Method: A prototypal compound, L-alanyl-2-(5-fluorouracil-2-yl)-L-glycine, was evaluated against representative fungal and bacterial organisms.
Candida albicans strains B―311 and BC 759, obtained from Smith Kline and French Laboratory Culture Collection were grown in a trypticase soy broth at 28° for 7 hours. The seeded plates, with this medium containing 1.5% agar, were prepared by inoculating 1 ml of the inoculum in 1 I of yeast-carbon base medium, containing 200 µg/ml of lysine or glutamate as a sole source of nitrogen.
(§1) The minimum inhibitory concentration of the test compound was determined by two-fold broth dilution tests in yeast carbon base medium, containing 200 pg/ml of sodium glutamate. The compounds were diluted from […] to 0.25 pg/ml and the test medium was inoculated with a suspension of C. albicans grown in the same medium for 15 hours at 37°. The final inoculum sizes in the tests were approximately 10^4 cfu/ml and 10^3 cfu/ml. The tubes were incubated at 37° for 24 and 48 hours and observed for inhibition.
A method similar to A above but using E. coli was used which employs a M-9 medium (basic salts with ammonium ion as the nitrogen source and glucose as the carbon source).

[2] = tested on: C. albicans; assay: Minimum inhibitory concentration, two-fold broth dilution (Method B); assay type: cell-based, Candida albicans; settings: C. albicans in Method B; text summary of MIC table (table is an image)
Method: as §1

[3] = Stability of a-substituted glycine peptides in aqueous buffer (Ellman colorimetric assay); assay type: physicochemical; settings: for half-life: 0.2 M phosphate buffer (pH 7.0), no enzyme, read-out: stable (t)
[4] = tested on: Leucine Aminopeptidase; assay: Enzyme catalyzed warhead release (Ellman colorimetric assay); assay type: biochemical, hog; settings: pH 7.0; linear rate over the observation period (5 min)
Method: In each case upon addition of the enzyme, Leucine Aminopeptidase, the warhead was released. The release was maintained at a linear rate over the observation period (5 min). […] These observations are consistent with literature reports of the optimal pH necessary for the efficacy of this enzyme. These observations were obtained by colorimetric assay, which involves the reaction between a free sulfhydryl group and 5,5'-dithio-bis(2-nitrobenzoic acid), the Ellman reagent, to produce a yellow color as follows: [drawing 44] The peptide from Example 4 was dissolved in 4 mM of phosphate buffer solution (pH 7) containing the Ellman reagent at a level of 4 mg/ml to produce a 1 mM solution of the peptide. The resulting mixture was monitored using a spectrophotometer at a wavelength of 412 nm. To 1 ml of this solution was added 100 µg of hog kidney leucine aminopeptidase (Sigma) and the enzymatic hydrolysis was continuously monitored at 412 nm.

SMILES | antifungal activity [2] | half-life [3] [h] | other results
C[C@H](N)C(=O)NC(NNS(=O)(=O)c1cc(C(=O)O)cc(C(=O)O)c1)C(=O)O (stereo partly drawn) [Example 12, L-alanyl-2-(3,5-dicarboxy-phenylsulfohydrazino)-D,L-glycine] | – | – | activity in the biological screen [1]: not active
C[C@H](N)C(=O)NC(C(=O)O)n1cc(F)c(=O)[nH]c1=O (mixture of isomers) [L-, DL, L-alanyl-2-(5-fluorouracil-1-yl)-D,L-glycine] | antifungal activity | – | –
C[C@H](N)C(=O)NC(C(=O)O)n1cc(F)c(=O)[nH]c1=O (stereo partly drawn) [L-L, L-alanyl-2-(5-fluorouracil-2-yl)-L-glycine] | antifungal activity | – | –
C[C@H](N)C(=O)NC(Sc1ccccc1)C(=O)O (stereo partly drawn) [Example 13, L-alanyl-2-(thiophenyl)-D,L-glycine] | – | > 83.3 | –
C[C@H](N)C(=O)NC(SCCNc1cc(C(=O)O)nc(C(=O)O)c1)C(=O)O (stereo partly shown) [Example 4] | – | > 83.3 | warhead release upon addition of the enzyme [4]: released; non-enzymatic warhead release ([3]; pH 7.5): no noticeable increases
